Consider ten compounds from US20230107216A1, “PANTETHEINE DERIVATIVES AND USES THEREOF” (Comet Therapeutics, Inc., priority 2018, published 2023).

The structures appear in SMILES notation. Some results are limits rather than exact numbers.

The first experiment concerns Propionic Acidemia (PA) primary fibroblasts Tsi 6337. Put plainly: Mitochondrial respiration, XFe96 Extracellular Flux Analyzer (OCR/ECAR), PA fibroblasts Tsi 6337. Type of experiment: cell-based. As to conditions: Homo sapiens, Fibroblast, PA Tsi 6337, assay condition A (10 mM glucose, 2 mM L-glutamine, 1 mM pyruvate, 10% FBS), read-out: Increase in Maximal Respiratory Capacity AUC. The procedure:
The effect of the compounds of the present disclosure on mitochondrial respiration was measured with a XFe96 Extracellular Flux Analyzer (Seahorse Bioscience, Agilent Technologies) and Oxygen consumption Rate (OCR) and Extracellular acidification rate (ECAR) determined.
Cell culture and treatments. Primary adherent fibroblasts were cultured in minimum essential medium (MEM) (Gibco, 25030081) supplemented with 2 mM L-Glutamine (Gibco, 25030081), 15% fetal bovine serum (FBS) (Gibco, 26400044) and 1% penicillin/streptomycin (Gibco, 5140122) at 37° C. and 5% CO2. Cells were collected for either passaging or experiment at ˜70-80% confluence. Cells were obtained by trypsinization and seeded at 20000 cells/well in cell culture microplates (Seahorse Bioscience, 101085-004) and allowed to adhere for 16 hours in culture media.
By profiling different primary cells and/or optimizing their culture media or environmental components one can select cell lines and/or conditions that are appropriate for the biological or disease model. In the present example, 24 hours prior to OCR and ECAR profiling, media was changed to Dulbecco's Modified Eagle Medium (DMEM, Agilent Seahorse 103575-100) with the appropriate supplements for the different primary cells (10 mM glucose, 2 mM L-glutamine, 1 mM pyruvate, 10% FBS; 1 mM glucose, 2 mM L-glutamine, 1 mM pyruvate, 10% FBS; 10 mM glucose, 10% FBS; 5 mM glucose 10% FBS; 1 mM glucose 10% FBS). Cells used in this example were: Propionic Acidemia (PA) (GM00371, GM03590 Coriell Institute for Medical Research, Tsi 6337, Tsi 4626, Tsi 3618 Trans-Hit Bio), Methylmalonic Acidemia (MMA) (GM01673, Coriell Institute for Medical Research, Tsi 5224 Trans-Hit Bio), Branched chain ketoacid dehydrogenase kinase (BCKDK) (GM00612, GM00649 Coriell Institute for Medical Research), Subnormal activation of pyruvate dehydrogenase complex (PDH) (GM01503 Coriell Institute for Medical Research), Very long-chain acyl-CoA dehydrogenase (VLCAD) (GM17475), Leigh Syndrome (LS) (GM03672, GM13411 Coriell Institute for Medical Research), Pyruvate Carboxylase Deficiency (PC) (GM00444 Coriell Institute for Medical Research), Glutaric Acidemia-I (GA) (GM10653), Friedreich's Ataxia (FXN) (GM04078 Coriell Institute for Medical Research, Huntington's disease (HD) (GM21756 Coriell Institute for Medical Research), Ornithine Transcarbamylase Deficiency (OTC) (GM12756 Coriell Institute for Medical Research), Kearns-Sayre Syndrome (KSS) (GM06225 Coriell Institute for Medical Research).
One hour before the assay, the cells were washed with freshly prepared unbuffered serum free-Seahorse XF Assay medium (Seahorse Bioscience, North America, USA, 103575-100) with the same supplements as for the previous 24 hour incubation.
After baseline measurements of OCR, cells were challenged with compounds of the present disclosure at different concentrations (10 to 50 μM) or vehicle (DMSO, 0.1%) and a post-compound baseline was recorded. OCR was measured after sequentially adding to each well 1 μg/ml oligomycin (inhibitor of ATP synthase Sigma-Aldrich, 753531), then maximal OCR was determined with carbonyl cyanide 4-(trifluoromethoxy) phenylhydrazone (FCCP, Sigma-Aldrich, C2920), (uncoupler of oxidative phosphorylation) and 0.5 μM of rotenone (Sigma-Aldrich, R8875) plus antimycin A (Sigma-Aldrich, A8674) (inhibitors of mitochondrial complex I and III) for determination of rotenone-antimycin insensitive respiration together with Hoechst for nuclear staining in situ when normalized to cell counts. After the analysis and nuclear staining, the XFp microplate was transferred to the Cytation 5, and the nuclear images were captured, the individual nuclei were identified and counted by BioTek Gen5 software. Data were expressed as pmol of O2 per minute and normalized by nuclear staining and baselined to pre-compound addition.
Assay conditions were as stated below.
Assay specifics on assay conditions are indicated below when readouts were normalized to cell counts. […]
On to `COC(=O)CC[C@H](N)C(=O)SCCNC(=O)CCNC(=O)[C@H](O)C(C)(C)CO` [Compound 411], for which the activation at 10 µM is at least 10%. Consider `CC(C)(CO)[C@@H](O)C(=O)NCCC(=O)NCCSC(=O)C1CCC(=O)N1` (stereo partly drawn) [Compound 1227, S-2-{3-[(R)-2,4-dihydroxy-3,3-dimethylbutyrylamino]propionylamino}ethyl 5-oxo-2-pyrrolidinecarbothioate], for which the activation at 10 µM is at least 10%.

In the case of `CC(=O)SCCNC(=O)CCNC(=O)[C@H](O)C(C)(C)COC(=O)CCC(=O)O` [Compound 1242, (R)-12-hydroxy-13,13-dimethyl-2,7,11,16-tetraoxo-15-oxa-3-thia-6,10-diazanonadecan-19-oic acid], the activation at 10 µM was at least 10%. As to `C[C@H](CC(=O)SCCNC(=O)CCNC(=O)[C@H](O)C(C)(C)CO)OC(=O)CCC(=O)O` [Compound 1243, 4-{[(2R)-4-[(2-{3-[(2R)-2,4-dihydroxy-3,3-dimethylbutanamido]propanamido}ethyl)sulfanyl]-4-oxobutan-2-yl]oxy}-4-oxobutanoic acid], the activation at 10 µM was at least 10%. For the compound `CC1(CC(=O)SCCNC(=O)CCNC(=O)[C@H](O)C(C)(C)CO)OCCO1` [Compound 1252, (R)—S-(2-(3-(2,4-dihydroxy-3,3-dimethylbutanamido)propanamido)ethyl)-2-(2-methyl-1,3-dioxolan-2-yl)ethanethioate], the activation at 10 µM is at least 10%. Still for that read-out and setting: with `CC(C)(COC(=O)CCC(=O)O)[C@@H](O)C(=O)NCCC(=O)NCCS` [Compound 1310, (R)-4-(3-hydroxy-4-((3-((2-mercaptoethyl)amino)-3-oxopropyl)amino)-2,2-dimethyl-4-oxobutoxy)-4-oxobutanoic acid] the figure was at least 10%; with `CC(C)(CO)[C@@H](OC(=O)CCC(=O)O)C(=O)NCCC(=O)NCCS` [Compound 1311, (R)-4-((4-hydroxy-1-((3-((2-mercaptoethyl)amino)-3-oxopropyl)amino)-3,3-dimethyl-1-oxobutan-2-yl)oxy)-4-oxobutanoic acid], at least 10%.

The experiment is the same for the next values; noted with them: Homo sapiens, Fibroblast, PA Tsi 6337, assay condition D (1 mM glucose, 10% FBS), read-out: Increase in Maximal Respiratory Capacity AUC.
As to `COC(=O)/C=C/C(=O)SCCNC(=O)CCNC(=O)[C@H](O)C(C)(C)COP(=O)(O)O` [Compound 73, methyl (R,E)-4-((2-(3-(2-hydroxy-3,3-dimethyl-4-(phosphonooxy)butanamido)propanamido)ethyl)thio)-4-oxobut-2-enoate], the activation at 10 µM is at least 10%. Consider `COC(=O)C(C)C(=O)SCCNC(=O)CCNC(=O)[C@H](O)C(C)(C)CO` (some centres unmarked) [Compound 405], for which the activation at 10 µM is at least 10%. As for `COC(=O)CC[C@H](N)C(=O)SCCNC(=O)CCNC(=O)[C@H](O)C(C)(C)CO` [Compound 411], the activation at 10 µM was at least 10%. As to `CCC(C)C(=O)CC(=O)SCCNC(=O)CCNC(=O)[C@H](O)C(C)(C)CO` (stereo partly drawn) [Compound 1240, S-(2-(3-((R)-2,4-dihydroxy-3,3-dimethylbutanamido)propanamido)ethyl) 4-methyl-3-oxohexanethioate], the activation at 10 µM is at least 10%.
